Test system: TXA2
Assay: rabbit aortal strip model, test (a)
Type: cell-based
Conditions: agonist TXA2 or U46619
Procedure: (a) The rabbit aortal strip model devised by Piper and Vane (Nature, 1969, 223, 29-35) using as agonist a freshly prepared sample of TXA2, generated by addition of arachidonic acid (25 μg) to citrated, platelet rich rabbit plasma (250 μl) and allowing the mixture to aggregate fully over 90 seconds before use; alternatively the TXA2 mimetic agent known as U46619 (described by R L Jones et alia, in "Chemistry, Biochemistry and Pharmacological Activity of Prostanoids" edited by S M Roberts and F Scheinmann, at page 211, Pergamon Press, 1979) may be used as the agonist;

## CC1(C)O[C@@H](c2ccccc2O)[C@@H](C/C=C\CCCC(=O)O)CS1 (relative stereo) [Example 1, 5(Z)-7-(6-o-hydroxyphenyl-2,2-dimethyl-1,3-oxathian-cis-5-yl)heptenoic acid]
  pA2 in test (a): 7.42
